Test results reported in US20190336496A1, “SELECTIVE BCL-2 INHIBITORS IN COMBINATION WITH AN ANTI-PD-1 OR AN ANTI-PD-L1 ANTIBODY FOR THE TREATMENT OF CANCERS” (AbbVie Inc., priority 2018, published 2019).

Experiments:
[1] = system: 4T1; test: Venetoclax cell killing (CellTiter-Glo); format: cell-based, murine; conditions: Mus musculus, 4T1, 72 h; Breast Cancer; 10% FBS; 3 days
Method: (§1) Solid tumor cell lines were obtained from American Type Culture Collection (ATCC, Manassas, Va.) or the National Cancer Institute (NCI) and cultured in humidified incubators at 37° C. (5% CO2) in appropriate media (specified by supplier) supplemented with 10% fetal bovine serum (FBS) or 10% human serum (HS). 24 hours after plating into 96-well or 384-well tissue culture plates, venetoclax was added to cells at various concentrations (typically 0.010 to 10 μM in half-log increments) to perform concentration-response assessments of cell killing. After 1 to 5 days of culture in the presence of venetoclax, cell viability was assessed using CellTiter-Glo® reagent (Promega). IC50 values were determined by non-linear regression analysis of the concentration response data (Table 5 and Table 6).

[2] = system: B16F10; test: Venetoclax cell killing (CellTiter-Glo); format: cell-based, murine; conditions: Mus musculus, B16-F10, 72 h; Melanoma; 10% FBS; 3 days
Method: as §1

[3] = system: B16F1; test: Venetoclax cell killing (CellTiter-Glo); format: cell-based, murine; conditions: Mus musculus, B16-F1, 72 h; Melanoma; 10% FBS; 3 days
Method: as §1

[4] = system: CT26; test: Venetoclax cell killing (CellTiter-Glo); format: cell-based, murine; conditions: Mus musculus, CT26, 72 h; Colorectal; 10% FBS; 3 days
Method: as §1

[5] = system: EMT6; test: Venetoclax cell killing (CellTiter-Glo); format: cell-based, murine; conditions: Mus musculus, EMT6, 72 h; Breast Cancer; 10% FBS; 3 days
Method: as §1

[6] = system: LL2; test: Venetoclax cell killing (CellTiter-Glo); format: cell-based, murine; conditions: Mus musculus, LL/2, 72 h; Lung Cancer; 10% FBS; 3 days
Method: as §1

[7] = system: MC38; test: Venetoclax cell killing (CellTiter-Glo); format: cell-based, murine; conditions: Mus musculus, MC-38, 72 h; Colorectal; 10% FBS; 3 days
Method: as §1

[8] = system: Renca; test: Venetoclax cell killing (CellTiter-Glo); format: cell-based, murine; conditions: Mus musculus, 72 h, Renal Adenocarcinoma, 10% FBS, 3 days
Method: as §1

[9] = system: CMV-positive human PBMCs; test: CMV recall assay using human CMV+ PBMC; format: cell-based
Method: The cytomegalovirus (CMV) recall assay was used to assess the functional effects of Compound (I) on antigen-specific immune cells. This assay used CMV antigen to stimulate pre-existing memory T-cells in CMV-positive human PBMCs. Human CMV-positive PBMCs and CMV antigen were purchased from Astarte Biologics (Cat.No:1001 and Cat. No. 1004, respectively). To measure whether T cells from CMV-positive donor are functionally active, 2×10^5 CMV-positive PBMCs were stimulated with 0.05 μg/mL of CMV antigen and at the same time venetoclax was added. The cells were cultured in Roswell Park Memorial Institute (RPMI) media supplemented with 10% fetal bovine serum (FBS). On day 4, cells were quickly re-stimulated with phorbol 12-myristate-13-acetate (PMA, 0.08 μM)/ionomycin (1.3 μM) and treated with brefeldin A (5 μg/mL) for 4 hours. Cells were stained with the following commercial antibodies: CD3, CD4, IFNγ, and IL-2 (all from Biolegend), as well as with the Zombie Green™ fixable viability kit. Cells were analyzed using an LSRFortessa™ X-20 instrument (BD Biosciences).
The remaining live cells were gated by CD3 and CD4 expression whereas CD3^+CD4^+ cells were considered as CD4^+ T-cells and CD3^+CD4^− cells were considered as CD8^+ T-cells. Production of IFNγ and IL-2 cytokines by CD8+ T-cells was assessed by flow cytometry (FIG. 10B, 10C).

[10] = system: CD4 T-cells co-cultured with MoDCs; test: Mixed lymphocyte reaction (MLR) assay; format: cell-based, human
Method: Mixed Lymphocyte Reaction (MLR) assay was used to examine venetoclax effect on T-cell function in response to immune stimulation. Monocytic-derived dendritic cells (MoDCs) were generated from fresh human blood. PBMCs were isolated using a Ficoll gradient. The PBMCs were allowed to adhere for 2 hours. After 2 hours, cells in suspension were removed. Fresh AIM V™ medium (ThermoFisher cat. #12055091) supplemented with granulocyte-macrophage colony-stimulating factor (GM-CSF, 80 ng/mL) and IL-4 (50 ng/mL) was added to the culture. After 5 days, the MoDCs were stimulated with IL-1α and TNF-α (0.2 ng/mL each) for 48 hours to increase major histocompatibility complex class II molecules (MHCII) expression. These activated MoDCs were then co-cultured with CD4 T-cells (Biospecialty Corp.) at a ratio of 10:1 (T-cells:MoDCs) in a mixed lymphocyte reaction (MLR). The cells were treated with control IgG (Isotype) or anti-PD-1 antibody (nivolumab or ABBV-181 along with either dimethyl sulfoxide (DMSO) or BCL-2 inhibitors venetoclax (Compound (I)) or Compounds (II) or (III). Antibodies were added at 10 μg/mL and the compound concentrations of venetoclax were as indicated in FIG. 11. The MLR was cultured for 5 days, after which the cells were analyzed by flow cytometry using an LSRFortessa™ X-20 instrument (BD Biosciences) to determine cell number and functional cytokine (IFNγ) responses.

[11] = system: B-lymphocytes and T-cell populations; conditions: cited from earlier work

Work on `CC1(C)CCC(CN2CCN(c3ccc(C(=O)NS(=O)(=O)c4ccc(NCC5CCOCC5)c([N+](=O)[O-])c4)c(Oc4cnc5[nH]ccc5c4)c3)CC2)=C(c2ccc(Cl)cc2)C1` [Compound (I), venetoclax] yielded an IC50 [1] of over 10 µM, an IC50 [2] of over 10 µM and an IC50 [3] of over 10 µM. The IC50 [4] was over 10 µM, the IC50 [5] was over 10 µM and the IC50 [6] was over 10 µM. For the same molecule, the IC50 [7] was about 10 µM, the IC50 [8] was over 10 µM and the “total number of lymphocytes” value ([9]; 0.05 μg/mL CMV antigen, day 4) was “reduced the total number of lymphocytes in a dose-dependent manner”. The “remaining T-cell activation, MFI of IFNγ and IL-2 (CD8+ T-cells)” value ([9]; CMV antigen, re-stimulated with PMA/ionomycin on day 4) was “dose-dependent inversely proportional increase”, the “IFNγ detected in the supernatant” value ([10]; MLR 5 days) was “same amount” and the “proportion of CD4+ T-cells that produce IFNγ” value ([10]; MLR 5 days, with isotype control or anti-PD-1 antibody) was “increase”. For the same molecule, the “number of CD4+ T-cells” value ([10]; MLR cultured 5 days, antibodies at 10 μg/mL) was “reduced”, the “CD3+ T cell numbers” value ([10]; MLR, BCL-2 inhibitors at 1 μM) was “declined comparably” and the “production of IFNγ (secreted)” value ([10]; MLR, BCL-2 inhibitors at 1 μM) was “not antagonized”. For the same molecule, the “proportion of CD3+ T-cells that produce IFNγ” value ([10]; MLR, BCL-2 inhibitors at 1 μM) was “increase”, the “reductions in T-cell populations” value ([11]; Lu et al. 2017, Khaw et al. 2014) was “up to 30%” and the “reductions in B-lymphocytes” value ([11]; clinically and in experimental studies) was “significant reductions”.
